{
  "source": "patent US20220160814A1",
  "about": "“COMPOSITIONS AND METHODS FOR PROTECTING TYPE 2 ALVEOLAR EPITHELIAL CELLS (AEC2)” (Lung Therapeutics, Inc., priority 2019, published 2022)",
  "test_system": "IPF fibroblasts",
  "format": "cell-based",
  "method": "FIGS. 1A-B. CSP7 deactivates IPF lung fibroblasts. IPF fibroblasts were treated with control peptide, TGFβ (a positive control to stimulate collagen), or a single dose of CSP7 and assayed 24 h later using ELISA against human collagen 1α1 (FIG. 1A). A cell titer glo assay was used to label live IPF fibroblasts grown on 96 well plates (FIG. 1B).\nA cell titer glo assay (Promega, G7570) was used to label live IPF fibroblasts grown on 96 well plates. IPF fibroblasts have a senescent phenotype, and as such they release factors that contribute to aberrant wound healing. Inducing apoptosis in IPF fibroblasts may […]. Luminescence was read in a plate reader. […] Luminescence is proportional to living cell number, i.e., a decrease in luminescence correlates with cell death.",
  "note": "Where no end group is shown, it is not given here.",
  "data": [
    {"substance": "FTTFTVT [CSP7, FTTFTVT]", "values": [
      {"measurement": "apoptosis / live cell number (luminescence)", "result": "did not stimulate apoptosis"}
    ]}
  ]
}
